From patent US9540691B2, “Assays and methods for selecting a treatment regimen for a subject with depression” (THE GENERAL HOSPITAL CORPORATION, priority 2011, dated 2017)
Read-outs that look alike come from different tables or passages of the source. Marks after values point to notes of the source that are not given here.

System: MDD patients carrying the indicated conditions
Procedure: Folate levels are classified as either low (<=2.5 ng/ml) or normal; and homocysteine levels as either normal or elevated (>=[…]). The presence or absence of at least one […] allele for the MTHFR gene are entered as a dichotomous variable (present or absent). […] Using folate as an example predicator, the presence or absence of a low serum-folate level along with treatment assignment can be entered in a 2×2, factorial ANOVA, using depression improvement scores (baseline minus endpoint HAM-D-17 scores) as the dependant variable. […] Similar analyses (i.e. separate 2×2 ANOVA's) can be performed substituting the presence of low folate levels for the presence of other predictors as described herein. Similarly, the effect of other predictors can be indicated by the interaction term representing the potential modulating influence of those variables.
Particularly, specific genetic and biomarkers that were assessed include the following: • (a) BMI calculation of at least about 30 kg/m^2; • (b) an expression ratio of SAM/SAH smaller than 2.8 (e.g., 2.71) as measured in a plasma sample; • (c) a level of 4-HNE no less than 3.28 μg/mL (as measured in a plasma sample); • (d) presence of rare variants CT or TT at position 677 of SEQ ID NO: 1 corresponding to a portion of a genomic nucleic acid sequence of methylenetetrahydrofolate reductase (MTHFR) (abbreviated as “MTHFR 677” below); • (e) presence of rare variants AG or GG at position 2756 of SEQ ID NO: 2 corresponding to a portion of genomic nucleic acid sequence of methionine synthase (MTR) (abbreviated as “MTR 2756” below); and • (f) presence of rare variants AG or GG at position 66 of SEQ ID NO: 3 corresponding to a portion of genomic nucleic acid sequence of methionine synthase reductase (MTRR) (abbreviated as “MTRR 66” below).
The efficacy effect is determined by measuring the mean change in the HAMD-17 score and HAMD-28 score by the end of Phase I and Phase II, as compared to the baseline.

[1] = Pooled phases, interaction of BMI with the treatment, with SSRI
[2] = Pooled phases, interaction of HNE-his with the treatment, with SSRI
[3] = Pooled phases, interaction of SAM/SAH with the treatment, with SSRI

With `CN1c2c(nc(N)[nH]c2=O)NC[C@@H]1CNc1ccc(C(=O)N[C@@H](CCC(=O)O)C(=O)O)cc1` [6(S)-5-MTHF, 6(S)-5-methyltetrahydrofolate] the “Effect, change in HAMD-17 score” value (Pooled phases, MTHFR 677 CC and MTR 2756 AA (29,13), with SSRI) was 0.722, the “Effect, change in HAMD-28 score” value (Pooled phases, MTHFR 677 CC and MTR 2756 AA, with SSRI) was 0.711 and the “Effect, change in HAMD-17 score” value (Pooled phases, MTHFR 677 CT or TT and BMI >= 30 kg/m^2 (13,6), with SSRI) was −8.090. For the same molecule, the “Effect, change in HAMD-28 score” value (Pooled phases, MTHFR 677 CT or TT and BMI >= 30 kg/m^2, with SSRI) was −9.884, the “Effect, change in HAMD-17 score” value (Pooled phases, MTHFR 677 CT or TT and HNE-His >= median (11,6), with SSRI) was −9.446 and the “Effect, change in HAMD-28 score” value (Pooled phases, MTHFR 677 CT or TT and HNE-His >= median, with SSRI) was −9.865. The “Effect, change in HAMD-17 score” value (Pooled phases, MTHFR 677 CT or TT and MTR 2756 AG or GG (8,4), with SSRI) was −18.71, the “Effect, change in HAMD-28 score” value (Pooled phases, MTHFR 677 CT or TT and MTR 2756 AG or GG, with SSRI) was −23.29 and the “Effect, change in HAMD-17 score” value (Pooled phases, MTR 2756 AA (45,21), with SSRI) was −0.590. The “Effect, change in HAMD-17 score” value (Pooled phases, MTR 2756 AA and BMI < 30 kg/m^2 (17,7), with SSRI) was 3.196, the “Effect, change in HAMD-28 score” value (Pooled phases, MTR 2756 AA and BMI < 30 kg/m^2, with SSRI) was 3.352 and the “Effect, change in HAMD-17 score” value (Pooled phases, MTR 2756 AA and HNE-His < median (26,13), with SSRI) was 1.319. The “Effect, change in HAMD-28 score” value (Pooled phases, MTR 2756 AA and HNE-His < median, with SSRI) was 2.085, the “Effect, change in HAMD-17 score” value (Pooled phases, MTR 2756 AA and MTRR 66 AA (11,5), with SSRI) was −1.373 and the “Effect, change in HAMD-17 score” value (Pooled phases, MTR 2756 AA and MTRR 66 AA and HNE-His < median (6,4), with SSRI) was 0.466. The “Effect, change in HAMD-28 score” value (Pooled phases, MTR 2756 AA and MTRR 66 AA and HNE-His < median = 3.28 (plasma sample), with SSRI) was −2.221, the “Effect, change in HAMD-17 score” value (Pooled phases, MTR 2756 AA and MTRR 66 AA and SAM/SAH >= median (6,3), with SSRI) was −3.98* and the “Effect, change in HAMD-28 score” value (Pooled phases, MTR 2756 AA and MTRR 66 AA and SAM/SAH >= median, with SSRI) was −3.74*. For the same molecule, the “Effect, change in HAMD-28 score” value (Pooled phases, MTR 2756 AA and MTRR 66 AA, with SSRI) was −3.032, the “Effect, change in HAMD-17 score” value (Pooled phases, MTR 2756 AA and SAM/SAH >= median (24,12), with SSRI) was 0.054 and the “Effect, change in HAMD-28 score” value (Pooled phases, MTR 2756 AA and SAM/SAH >= median, with SSRI) was −0.071. The “Effect, change in HAMD-28 score” value (Pooled phases, MTR 2756 AA, with SSRI) was −0.047, the “Effect, change in HAMD-17 score” value (Pooled phases, MTR 2756 AG or GG and BMI >= 30 kg/m^2 (10,5), with SSRI) was −11.714 and the “Effect, change in HAMD-28 score” value (Pooled phases, MTR 2756 AG or GG and BMI >= 30 kg/m^2, with SSRI) was −14.433. For the same molecule, the “Effect, change in HAMD-17 score” value (Pooled phases, MTR 2756 AG or GG and HNE-His >= median (13,7), with SSRI) was −8.072, the “Effect, change in HAMD-28 score” value (Pooled phases, MTR 2756 AG or GG and HNE-His >= median = 3.28 (plasma sample), with SSRI) was −9.508 and the “Effect, change in HAMD-17 score” value (Pooled phases, MTR 2756 AG or GG and MTRR 66 AG or GG (15,7), with SSRI) was −6.976. For the same molecule, the “Effect, change in HAMD-17 score” value (Pooled phases, MTR 2756 AG or GG and MTRR 66 AG or GG and BMI >= 30 kg/m^2 (8,4), with SSRI) was −10.972, the “Effect, change in HAMD-28 score” value (Pooled phases, MTR 2756 AG or GG and MTRR 66 AG or GG and BMI >= 30 kg/m^2, with SSRI) was −15.347 and the “Effect, change in HAMD-17 score” value (Pooled phases, MTR 2756 AG or GG and MTRR 66 AG or GG and HNE-His >= median (10,4), with SSRI) was −7.942. The “Effect, change in HAMD-28 score” value (Pooled phases, MTR 2756 AG or GG and MTRR 66 AG or GG and HNE-His >= median, with SSRI) was −10.241, the “Effect, change in HAMD-28 score” value (Pooled phases, MTR 2756 AG or GG and MTRR 66 AG or GG, with SSRI) was −9.348 and the “Effect, change in HAMD-17 score” value (Pooled phases, MTR 2756 AG or GG and SAM/SAH < median (10,4), with SSRI) was −5.583. For the same molecule, the “Effect, change in HAMD-28 score” value (Pooled phases, MTR 2756 AG or GG and SAM/SAH < median = 2.71 (plasma sample), with SSRI) was −11.683, the “Effect, change in HAMD-17 score” value (Pooled phases, MTR 2756 AG/GG (20,11), with SSRI) was −5.677 and the “Effect, change in HAMD-28 score” value (Pooled phases, MTR 2756 AG/GG, with SSRI) was −8.243. For the same molecule, the “Effect, change in HAMD-17 score” value (Pooled phases, MTRR 66 AA and HNE-His < median (8,5), with SSRI) was 2.575, the “Effect, change in HAMD-28 score” value (Pooled phases, MTRR 66 AA and HNE-His < median = 3.28 (plasma sample), with SSRI) was −2.626 and the “Effect, change in HAMD-17 score” value (Pooled phases, MTRR 66 AA and SAM/SAH >= median (9,6), with SSRI) was −2.978. For the same molecule, the “Effect, change in HAMD-28 score” value (Pooled phases, MTRR 66 AA and SAM/SAH >= median, with SSRI) was −1.221, the “Effect, change in HAMD-17 score” value (Pooled phases, MTRR 66 AG or GG and HNE-His >= median (24,11), with SSRI) was −4.850 and the “Effect, change in HAMD-17 score” value (Pooled phases, MTRR 66 AG or GG and SAM/SAH < median (24,10), with SSRI) was −5.879. The “Effect, change in HAMD-28 score” value (Pooled phases, MTRR 66 AG or GG and SAM/SAH < median = 2.71 (plasma sample), with SSRI) was −6.579, the “Effect, change in HAMD-17 score” value (Pooled phases, SAM/SAH < median and HNE-His >= median (19,7), with SSRI) was −9.898 and the “Effect, change in HAMD-28 score” value (Pooled phases, SAM/SAH < median and HNE-His >= median, with SSRI) was −9.500. The “Effect, change in HAMD-17 score” value (Pooled phases, SAM/SAH >= median and HNE-His < median (18,8), with SSRI) was 2.107, the “Effect, change in HAMD-28 score” value (Pooled phases, SAM/SAH >= median and HNE-His < median, with SSRI) was 2.413 and the “Effect, change in HAMD-17 score: BMI*treat” value [1] was −0.233. For the same molecule, the “Effect, change in HAMD-28 score: BMI*treat” value [1] was −0.270, the “Effect, change in HAMD-17 score: HNE-his*treat” value [2] was 0.626 and the “Effect, change in HAMD-28 score: HNE-his*treat” value [2] was 0.685. The “Effect, change in HAMD-17 score: SAM/SAH*treat” value [3] was 0.882, the “Effect, change in HAMD-28 score: SAM/SAH*treat (last line)” value [3] was 1.112 and the “Effect, change in HAMD-17 score: baseHAMD-17*treat” value (Pooled phases, interaction of base HAMD-17 with the treatment, with SSRI) was −0.025. The “Effect, change in HAMD-28 score: SAM/SAH*treat (first line under HAMD28)” value (Pooled phases, interaction with the treatment, with SSRI) was 0.882, the “improvement in HDRS-28 or CGI-S, patients with at least one T allele at MTHFR 677 vs no T allele (in words)” value (in combination with an SSRI, FIGS. 4A-4B) was “greater degree of improvement” and the “improvement in HAMD-28 or CGI-S, obese (BMI at least 30 kg/m^2) vs non-obese patients (in words)” value (in combination with an SSRI, FIGS. 5A-5B) was “greater degree of improvement”.
